Results: patent publication US7108865B2, “Controlled-release dosage forms of azithromycin” (Pfizer Inc, priority 1994, dated 2006)

How the values were obtained:
[1] = Recovery of azithromycin in ileostomy fluid after IV infusion in ileostomy subjects; type: in vivo, human; conditions: 500 mg IV infusion over 1 hr, twelve ileostomy subjects, 24 hr following dose
Text: A 2.0 g intravenous azithromycin dose is equivalent to a 5.4 g oral azithromycin dose, from the standpoint of equivalent systemic drug exposure. At an even higher intravenous dose, a higher side effect incidence is observed. While GI side effects can be elicited by high intravenous doses, these observations are consistent with the statement that azithromycin GI side effects are mediated by direct contact of the drug with the intestinal wall in the lumen, based upon the following additional study. Twelve ileostomy subjects were administered an IV infusion of 500 mg azithromycin over 1 hr. Serum was collected predose and at 0.17, 0.33, 0.5, 1, 2, 4, 8, 12, 24, 48, 72, 96, 120, and 144 hr following initiation, of the infusion. In addition, the contents of the subjects' ileostomy bags were collected for the following intervals: 12 hr predose, 0–6 hr post-dose, 6–12 hr post-dose, and 12–24 hr post-dose. The serum and ileostomy fluid concentrations of azithromycin were assayed. […] Thus it is not surprising that high intravenous doses of azithromycin can cause gastrointestinal side effects, since a portion of the IV dose partitions into the lumen of the small intestine.

[2] = Visual Analogue Scale gastrointestinal side effects after 2 g oral capsule dose, single vs divided (Example 1); type: in vivo, human; design: key to Mean Cumulative Score (Visual Analogue Scale), abdominal pain / Mean Cumulative Score (Visual Analogue Scale), nausea / Mean Cumulative Score (Visual Analogue Scale), regurgitation / Mean Cumulative Score (Visual Analogue Scale), abdominal cramping: per-subject sum of 0–10 VAS scores over 240 h, averaged over group; conditions: for Incidence of Visual-Analogue-Scale score >1, abdominal cramping / Incidence of Visual-Analogue-Scale score >1, abdominal pain / Incidence of Visual-Analogue-Scale score >1, nausea / Incidence of Visual-Analogue-Scale score >1, regurgitation / Incidence of Visual-Analogue-Scale score >4, abdominal cramping / Incidence of Visual-Analogue-Scale score >4, abdominal pain / Incidence of Visual-Analogue-Scale score >4, nausea / Incidence of Visual-Analogue-Scale score >4, regurgitation: any time during 240 hr post-dose, #patients reporting score/total # patients; for Mean Cumulative Score (Visual Analogue Scale), abdominal cramping / Mean Cumulative Score (Visual Analogue Scale), abdominal pain / Mean Cumulative Score (Visual Analogue Scale), nausea / Mean Cumulative Score (Visual Analogue Scale), regurgitation: entire 240 hour post-dose period
Experimental: In a double-blind, randomized, placebo-controlled parallel group study, healthy male subjects were divided into three groups. Group A received a single 2 g azithromycin dose as eight 250 mg azithromycin capsules (“bolus dosing” group). Group B received the same total dose, administered as eight 250 mg capsules at the rate of one 250 mg capsule each 30 minutes for 3.5 hr (“divided dosing” group). Group C received matching placebo capsules. All subjects received eight capsules of drug or placebo at time 0, and a capsule of drug or placebo every half-hour for 3.5 hr. All subjects were dosed after an overnight fast. […] Tmax is the time at which Cmax is achieved.
Prior to dosing and each blood sampling time, each subject filled out a questionnaire, which consisted of a series of “Visual Analogue Scales” in which the subject was required to rate, on a scale of 0–10, the severity of certain potential side effects. The subjects were instructed that “0” indicated an absent effect and “10” indicated the worst possible effect. The subjects were instructed to interpolate between 0 and 10 for moderate side effects.
Analysis of side effect visual-analogue-scale data was carried out in two formats. In the first format (Table II), the analysis concentrated on the general incidence of side effects of a particular type. For each side effect type (e.g., abdominal pain), Table II reports the number of subjects who reported a score >1 at any time during the 240 hr post-dosing, and the number of subjects who reported a score >4 at any time during the 240 hr post-dosing. This analysis assumes that all scores >1 represent a real side effect occurrence, however mild or severe. A score >4 is presumed to reflect a moderate-to-severe side effect occurrence.
In the second format (Table III), the analysis reflects the general severity and duration of side effects. For a particular side effect (e.g., Abdominal Pain) in a particular subject, all visual-analogue-scale scores (over the 240 hr post-dose period) were summed to give a “cumulative score” over the entire time period of evaluation. “Cumulative scores” for all members of a treatment group were summed, and divided by the number of subjects in the group, to give a Mean Cumulative Score. […] Table III presents Mean Cumulative Scores for abdominal pain, nausea, regurgitation, and abdominal cramping.

[3] = 250 mg per half-hr for 3.5 hr (2 g total), oral
[4] = 250 mg/half-hr for 3.5 hr (2 g total), oral

SMILES: CC[C@H]1OC(=O)[C@H](C)[C@@H](O[C@H]2C[C@@](C)(OC)[C@@H](O)[C@H](C)O2)[C@H](C)[C@@H](O[C@@H]2O[C@H](C)C[C@H](N(C)C)[C@H]2O)[C@](C)(O)C[C@@H](C)CN(C)[C@H](C)[C@@H](O)[C@]1(C)O [azithromycin, 9a-aza-9a-methyl-9-deoxo-9a-homoerythromycin A]
- dose recovered intact in the ileostomy fluid [1]: 13%
- Incidence of Visual-Analogue-Scale score >1, abdominal cramping [2, 3]: 4/14
- Incidence of Visual-Analogue-Scale score >1, abdominal pain [2, 3]: 6/14
- Incidence of Visual-Analogue-Scale score >1, nausea [2, 3]: 3/14
- Incidence of Visual-Analogue-Scale score >1, regurgitation [2, 3]: 0/14
- Incidence of Visual-Analogue-Scale score >4, abdominal cramping [2, 3]: 0/14
- Incidence of Visual-Analogue-Scale score >4, abdominal pain [2, 3]: 1/14
- Incidence of Visual-Analogue-Scale score >4, nausea [2, 3]: 0/14
- Incidence of Visual-Analogue-Scale score >4, regurgitation [2, 3]: 0/14
- Mean Cumulative Score (Visual Analogue Scale), abdominal cramping [2, 4]: 4.46
- Mean Cumulative Score (Visual Analogue Scale), abdominal pain [2, 4]: 6.31
- Mean Cumulative Score (Visual Analogue Scale), nausea [2, 4]: 2.77
- Mean Cumulative Score (Visual Analogue Scale), regurgitation [2, 4]: 1.38
- Incidence of Visual-Analogue-Scale score >1, abdominal cramping ([2]; 2 g single oral dose): 6/15
- Incidence of Visual-Analogue-Scale score >1, abdominal pain ([2]; 2 g single oral dose): 6/15
- Incidence of Visual-Analogue-Scale score >1, nausea ([2]; 2 g single oral dose): 2/15
- Incidence of Visual-Analogue-Scale score >1, regurgitation ([2]; 2 g single oral dose): 0/15
- Incidence of Visual-Analogue-Scale score >4, abdominal cramping ([2]; 2 g single oral dose): 1/15
- Incidence of Visual-Analogue-Scale score >4, abdominal pain ([2]; 2 g single oral dose): 2/15
- Incidence of Visual-Analogue-Scale score >4, nausea ([2]; 2 g single oral dose): 1/15
- Incidence of Visual-Analogue-Scale score >4, regurgitation ([2]; 2 g single oral dose): 0/15
- Mean Cumulative Score (Visual Analogue Scale), abdominal cramping ([2]; 2 g single oral dose): 4.67
- Mean Cumulative Score (Visual Analogue Scale), abdominal pain ([2]; 2 g single oral dose): 6.4
- Mean Cumulative Score (Visual Analogue Scale), nausea ([2]; 2 g single oral dose): 1.93
- Mean Cumulative Score (Visual Analogue Scale), regurgitation ([2]; 2 g single oral dose): 0.53
